According to PubChem BioAssay AID700 (NMMLSC, 2007):
Calls of active or inactive are those of the source. No rule for the calls is given here.

What follows are compounds tested on bacterial quorum sensing reporter inhibition (assay: blockers of quorum-sensing reporter signal in bacteria – dose response (AID 700)).

| SMILES | IC50 |
| --- | --- |
| Cc1ccc(NC(=O)c2cc(C)on2)cc1 | > 20 µM (inactive) |
| O=C1CS/C(=N\C(=O)N2c3ccccc3Sc3ccccc32)N1 | 1.42 µM |
| CC1CN(c2nc3ccccc3nc2C(C#N)C(=O)OC2CCCCC2)CC(C)O1 (stereo not drawn) | > 20 µM (inactive) |
| COc1cc2[nH]c(=O)n(CCC(=O)N3CCN(c4cc(Cl)ccc4C)CC3)c(=O)c2cc1OC | > 20 µM (inactive) |
| CCOC(=O)C(C)(C)Sc1nc2c(cnn2-c2ccc(C)cc2)c(=O)[nH]1 | > 20 µM (inactive) |
| O=C(Nc1nc2c(s1)CCc1ccccc1-2)c1cccs1 | > 20 µM (inactive) |
| COc1ccc(O)c(C(=O)CC(=O)c2ccc(F)cc2)c1 | > 20 µM (inactive) |
| O=C(CSc1n[nH]c(-c2ccco2)n1)Nc1sc2c(c1C(=O)Nc1ccccc1)CCCC2 | 3.32 µM |
| CCc1ccc2[nH]c(=O)c(CN(CCCN3CCOCC3)C(=O)Nc3ccc(Cl)cc3)cc2c1 | > 20 µM (inactive) |
| CCc1c(C)nc(SCC(=O)Nc2ccc(Br)cc2)[nH]c1=O | > 20 µM (inactive) |
| CC[C@H]1OC(=O)C[C@@H](O)[C@H](C)[C@@H](O[C@@H]2O[C@H](C)C[C@H](N(C)C)[C@H]2O)[C@@H](CC=O)C[C@@H](C)C(=O)C=C[C@]2(C)O[C@H]2[C@@H]1C | 1.14 µM |
| COc1ccc(N(CC(=O)Nc2nc3ccc(C)cc3s2)S(=O)(=O)c2c(C)nn(C)c2C)cc1 | > 20 µM (inactive) |
| Oc1ccc(-c2nc3ncccn3c2Nc2ccc3c(c2)OCCO3)cc1 | > 20 µM (inactive) |
| Cc1ccc(C)c2[nH]c(=O)c(CN(CCN3CCCC3)C(=O)Nc3ccc(F)cc3)cc12 | > 20 µM (inactive) |
| CCCCC(=O)Nc1cc(C)c2c(=O)oc3ccccc3c2n1 | > 20 µM (inactive) |
| CCc1oc2ccccc2c1C(=O)c1cc(Br)c(O)c(Br)c1 | 0.74 µM |
| Cc1ccc(N2CC(C(=O)NC3=NCCS3)CC2=O)cc1 (stereo not drawn) | > 20 µM (inactive) |
| COc1ccc(-c2nc(C(N)=O)c3[nH]c(=O)n(-c4cccc(Cl)c4)c3n2)cc1OC | > 20 µM (inactive) |
| COC(=O)c1ccc(CSc2nc3c(cnn3-c3ccc(Cl)cc3)c(=O)[nH]2)o1 | > 20 µM (inactive) |
| CCc1oc2ccccc2c1C(=O)c1ccc(O)cc1 | 3.28 µM |
| CCc1ccc2[nH]c(=O)c(CN(CCCN3CCOCC3)C(=O)Nc3ccc(F)cc3)cc2c1 | > 20 µM (inactive) |
| CCOc1ccc(NC(=O)C2CCCN(S(=O)(=O)c3c(C)nn(C)c3C)C2)cc1 (stereo not drawn) | > 20 µM (inactive) |
| Cc1nn(C(C)(C)C)c(OC(=O)C2CCCC2)c1S(=O)(=O)c1ccccc1 | > 20 µM (inactive) |
| O=C(NCC(c1cccnc1)N1CCN(c2ccccc2F)CC1)c1cccc(Cl)c1 (stereo not drawn) | 1.97 µM |

| SMILES | IC50 |
| --- | --- |
| Cc1cccc2sc(NC(=O)CN(C)S(=O)(=O)c3ccc(Br)s3)nc12 | > 20 µM (inactive) |
| CC(C)[C@@]1(NC(=O)[C@@H]2C[C@@H]3c4cccc5[nH]cc(c45)C[C@H]3N(C)C2)O[C@@]2(O)[C@@H]3CCCN3C(=O)[C@H](Cc3ccccc3)N2C1=O | > 20 µM (inactive) |
| O=C(CN1C(=O)CC(c2ccco2)Sc2ccccc21)Nc1ccc2c(c1)OCCO2 (stereo not drawn) | > 20 µM (inactive) |
| CC(C)CC(NC(=O)c1ccco1)C(=O)Nc1ccc2c(c1)OCCO2 (stereo not drawn) | > 20 µM (inactive) |
| Cc1c(Cl)cccc1Nc1ccccc1C(=O)O | 1.89 µM |
| Cc1ccc(Cl)c(Nc2ccccc2C(=O)O)c1Cl | 3.13 µM |
| COc1ccc(-c2cnc(SCC(=O)Nc3ccc4c(c3)OCO4)n2Cc2ccco2)cc1 | 16.3 µM (inactive) |
| CC1(C)S[C@@H]2[C@H](NC(=O)[C@H](N)c3ccccc3)C(=O)N2[C@H]1C(=O)O | > 20 µM (inactive) |
| Cc1cc(NC(=O)CC(C)(C)C)nc2c1c(=O)oc1ccccc12 | > 20 µM (inactive) |
| COc1ccc(Nc2nc(-c3sc(N)nc3C)cs2)cc1 | > 20 µM (inactive) |
| Nc1c(C(O)(C(F)(F)F)C(F)(F)F)ccc2ccccc12 | > 20 µM (inactive) |
| O=C(NCCCc1ccccc1)c1cnc2n(c1=O)CCS2 | > 20 µM (inactive) |
| COCCn1nnnc1C(c1cc2cc(OC)ccc2[nH]c1=O)N1CCC(Cc2ccccc2)CC1 (stereo not drawn) | > 20 µM (inactive) |
| CC(C)N=c1cc2n(-c3ccc(Cl)cc3)c3ccccc3nc-2cc1Nc1ccc(Cl)cc1 | > 20 µM (inactive) |
| O=C(c1ccc(Br)o1)N1CCN(c2ccc3nnc(-c4ccccc4)n3n2)CC1 | > 20 µM (inactive) |
| COc1ccc(OC)c2[nH]c(=O)c(CCNC(=O)C(C)C)cc12 | > 20 µM (inactive) |
| Cc1cc(NC(=O)C2CCCC2)nc2c1c(=O)oc1ccccc12 | 18.4 µM (inactive) |
| CCCn1c(=S)[nH]c2cc(C(=O)N3CCN(c4ccccc4OC)CC3)ccc2c1=O | > 20 µM (inactive) |
| Cn1c(=O)oc2cc(S(=O)(=O)NCCN3CCN(c4ccccc4F)CC3)ccc21 | > 20 µM (inactive) |
| O=C(O)c1ccccc1Nc1cccc(C(F)(F)F)c1 | > 20 µM (inactive) |
| c1ccc(-c2ccc(C(c3ccccc3)n3ccnc3)cc2)cc1 (stereo not drawn) | > 20 µM (inactive) |
| CC1CCN(S(=O)(=O)c2ccc3c(c2)oc(=O)n3CC(=O)NCc2ccc3c(c2)OCO3)CC1 | > 20 µM (inactive) |
| Fc1ccc(-c2nnc3ccc(N4CCc5ccccc5C4)nn23)cc1 | > 20 µM (inactive) |
| CCOC(=O)C1=C(C)NC(C)=C(C(=O)OC)C1c1cccc(Cl)c1Cl (stereo not drawn) | > 20 µM (inactive) |

| SMILES | IC50 |
| --- | --- |
| COc1ccc(-c2oc3ncn(CCN4CCOCC4)c(=N)c3c2-c2ccc(OC)cc2)cc1 | > 20 µM (inactive) |
| Cn1cccc1Cc1nnc(SCC(=O)Nc2ccccc2)n1-c1ccc(F)cc1 | > 20 µM (inactive) |
| Cc1ccsc1-c1nc(CSCC(=O)N2CCN(c3ccccc3)CC2)c(C)o1 | 12.4 µM (inactive) |
| COc1cccc(-c2cc(C(F)(F)F)nc(NCc3ccco3)n2)c1 | > 20 µM (inactive) |
| Cc1ccc(C)c2[nH]c(=O)c(CN(CCN3CCCC3)C(=O)Nc3cccc(Cl)c3)cc12 | 8.19 µM |
| CC1CCCN(C(C(=O)Nc2ccc3c(c2)OCO3)c2ccccc2)C1 (stereo not drawn) | 1.25 µM |
| Cn1c(=O)n(CCc2ccccc2)c(=O)c2c1nc1n2CCN1Cc1ccco1 | > 20 µM (inactive) |
| CCOC(=O)N1CCC(NC(=O)Cn2nc(Cc3ccncc3)c3ccccc3c2=O)CC1 | 5.8 µM |
| Cc1cccc(Nc2ccccc2C(=O)O)c1C | 1.02 µM |
| CC(C)CCOP(=O)(c1ccc(N(C)C)cc1)C(O)c1ccccc1F (stereo not drawn) | > 20 µM (inactive) |
| COC(=O)C1C(=O)C2=C(CC1C)NC(C)=C(C(=O)OC1CCCCC1)C2c1ccc(N(C)C)cc1 (stereo not drawn) | 9.7 µM |
| CCc1ccc2[nH]c(=O)c(CN(CCCN3CCOCC3)C(=O)Nc3cccc(Cl)c3)cc2c1 | > 20 µM (inactive) |
| Cc1nc2ccccn2c1/C(O)=C1\C(=O)C(=O)N(CCCN(C)C)C1c1ccc(F)cc1 (stereo not drawn) | > 20 µM (inactive) |
| COc1ccc(NC(=O)c2c(SC)nsc2SC)cc1 | > 20 µM (inactive) |
| Cc1ccc2[nH]c(=O)c(CN(CCCN(C)C)C(=O)Nc3cccc(Cl)c3)cc2c1 | > 20 µM (inactive) |
| Clc1ccc(OCc2nnc3n2N=C(c2ccc4c(c2)OCCO4)CS3)c(Cl)c1 | > 20 µM (inactive) |
| CCC(=O)O[C@@H]1CC(=O)O[C@H](C)CC=CC=C[C@@H](O)[C@H](C)C[C@H](CC=O)[C@H](O[C@H]2O[C@H](C)[C@@H](O[C@H]3C[C@@](C)(O)[C@@H](OC(=O)CC)[C@H](C)O3)[C@H](N(C)C)[C@H]2O)[C@H]1OC | 0.55 µM |
| CC(C)Cc1cc(C(=O)Nc2sc3c(c2C#N)CCCC3)no1 | > 20 µM (inactive) |
| O=C(NCCN1CCN(c2ccccc2)CC1)c1cccn2c(=O)c3ccccc3nc12 | > 20 µM (inactive) |
| O=C(CCCCn1c(=O)[nH]c2ccccc2c1=O)N1CCN(c2cccc(C(F)(F)F)c2)CC1 | > 20 µM (inactive) |
| Cc1ccc(-c2nc(CS(=O)CC(=O)NCCC(C)C)c(C)o2)cc1 (stereo not drawn) | > 20 µM (inactive) |
| CC1CCCN(C(C(=O)Nc2ccc3c(c2)OCCO3)c2ccccc2)C1 (stereo not drawn) | > 20 µM (inactive) |
| CCc1c(C)sc(NC(=O)c2cc(C)on2)c1C#N | > 20 µM (inactive) |
| Cc1ccc2cc(CN(CCN3CCCC3)C(=O)Nc3ccccc3)c(=O)[nH]c2c1C | > 20 µM (inactive) |

| SMILES | IC50 |
| --- | --- |
| CCN1CCCC1CN(Cc1cc2c(C)cc(C)cc2[nH]c1=O)C(=O)NC1CCCCC1 (stereo not drawn) | > 20 µM (inactive) |
| Cc1ccc(C)c(N2CCN(C(=O)CCCCn3c(=O)[nH]c4ccccc4c3=O)CC2)c1 | > 20 µM (inactive) |
| CCc1ccc(S(=O)(=O)c2n[nH]n3c2nc(=O)c2ccccc23)cc1 | 1.46 µM |
| O=C(NC(=O)c1cccc(F)c1)OC[C@@H]1CCCN2CCCC[C@H]12 | > 20 µM (inactive) |
| COC(=O)c1[nH]nc2c1C(=O)N(C1CCCCC1)C2=O | 12.7 µM (inactive) |
| O=C(OCC(O)CO)c1ccccc1Nc1ccnc2cc(Cl)ccc12 (stereo not drawn) | > 20 µM (inactive) |
| O=C(CN1C(=O)CC(c2ccco2)Sc2ccccc21)NCc1ccc2c(c1)OCO2 (stereo not drawn) | 16.5 µM (inactive) |
| c1csc(CCNc2ncnc3sc4c(c23)CCC4)c1 | > 20 µM (inactive) |
| CCn1c2ccccc2c2cc(NC(=O)CSc3nnc(C4CC4)n3Cc3ccco3)ccc21 | > 20 µM (inactive) |
| O=C(O)CCc1cc(I)c(Oc2ccc(O)c(I)c2)c(I)c1 | 1.78 µM |
| CC1CCCCN1S(=O)(=O)c1ccc(C(=O)Nc2nnc(-c3cccs3)o2)cc1 (stereo not drawn) | > 20 µM (inactive) |
| N#Cc1c(NC(=O)COC(=O)C2CC3C=CC2C3)oc(-c2ccccc2)c1-c1ccccc1 (stereo not drawn) | 0.68 µM |
| CCc1ccc(N/C(SCc2cccc(F)c2)=C(/C#N)C(=O)NCc2ccco2)cc1 | > 20 µM (inactive) |
| CCCCc1oc2ccccc2c1C(=O)c1cc(I)c(OCCN(CC)CC)c(I)c1 | > 20 µM (inactive) |
| Cc1ccc2[nH]c(=O)c(CN(CCCN(C)C)C(=O)Nc3ccc(Cl)cc3)cc2c1 | 9.03 µM |
| Cc1cc(C)c2cc(CN(CCN3CCCC3)C(=O)Nc3ccc(F)cc3)c(=O)[nH]c2c1 | > 20 µM (inactive) |
| CCOC(=O)Cn1c(=O)oc2cc(S(=O)(=O)Nc3ccc(N(CC)CC)cc3C)ccc21 | > 20 µM (inactive) |
| COc1cccc(Oc2cnc(N)nc2-c2ccc(OC)cc2O)c1 | > 20 µM (inactive) |
| Cn1cc(/C=N/n2cnc3sc4c(c3c2=O)CCCC4)c2ccccc21 | > 20 µM (inactive) |
| N#Cc1c(NC(NC(=O)c2ccco2)C(=O)c2ccccc2)sc2c1CCCC2 (stereo not drawn) | > 20 µM (inactive) |
| CCCCOC(=O)Cn1c(=O)oc2ccc(C)cc21 | > 20 µM (inactive) |
